{"source": "paper PMC9292024", "about": "(The New Phytologist, 2021)", "key": {"[1]": {"biological_target": "T1, SbMAX1d (Sorghum bicolor, UniProt A0A809QVY0)", "T1 sequence (A0A809QVY0 1-539)": "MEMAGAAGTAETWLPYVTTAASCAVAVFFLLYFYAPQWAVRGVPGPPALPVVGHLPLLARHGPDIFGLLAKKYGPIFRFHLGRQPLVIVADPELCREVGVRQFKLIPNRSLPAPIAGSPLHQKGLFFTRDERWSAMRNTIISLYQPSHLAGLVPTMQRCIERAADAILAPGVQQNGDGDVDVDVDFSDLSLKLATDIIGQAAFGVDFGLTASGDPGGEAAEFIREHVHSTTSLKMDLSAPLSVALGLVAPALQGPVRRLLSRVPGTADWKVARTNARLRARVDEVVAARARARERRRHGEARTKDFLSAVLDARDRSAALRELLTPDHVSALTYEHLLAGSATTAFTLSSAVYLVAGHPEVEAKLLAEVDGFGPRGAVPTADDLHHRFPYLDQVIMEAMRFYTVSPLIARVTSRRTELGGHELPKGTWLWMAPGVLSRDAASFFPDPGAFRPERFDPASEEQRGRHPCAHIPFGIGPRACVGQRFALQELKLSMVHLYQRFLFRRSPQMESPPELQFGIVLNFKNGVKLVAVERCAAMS", "experiment": "yeast microsome conversion, LC-MS/MS", "format": "biochemical", "details": "33 μM rac-CL, 500 μM NADPH, 28°C, 1 h"}, "[2]": {"biological_target": "T2, SbMAX1c (Sorghum bicolor, UniProt A0A809Q895)", "T2 sequence (A0A809Q895 1-545)": "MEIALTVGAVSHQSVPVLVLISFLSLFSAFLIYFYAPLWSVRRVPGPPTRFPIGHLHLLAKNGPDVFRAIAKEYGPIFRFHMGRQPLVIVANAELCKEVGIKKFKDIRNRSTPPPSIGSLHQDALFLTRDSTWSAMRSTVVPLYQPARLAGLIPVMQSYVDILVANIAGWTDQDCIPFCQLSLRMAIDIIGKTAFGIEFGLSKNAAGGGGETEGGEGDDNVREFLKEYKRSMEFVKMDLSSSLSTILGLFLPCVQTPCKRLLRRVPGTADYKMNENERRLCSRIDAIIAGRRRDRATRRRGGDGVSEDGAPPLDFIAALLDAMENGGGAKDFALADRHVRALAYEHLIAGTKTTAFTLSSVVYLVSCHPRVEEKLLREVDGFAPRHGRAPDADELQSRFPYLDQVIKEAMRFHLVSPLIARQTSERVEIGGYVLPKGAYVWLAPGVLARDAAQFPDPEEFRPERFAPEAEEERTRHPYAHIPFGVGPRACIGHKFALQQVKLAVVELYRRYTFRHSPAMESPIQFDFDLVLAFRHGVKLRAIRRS", "experiment": "yeast microsome conversion, LC-MS/MS", "format": "biochemical", "details": "33 μM rac-CL, 500 μM NADPH, 28°C, 1 h"}}, "data": [{"compound": "CC1=CC(O/C=C(C)\\C=C\\C2=C(C)CCCC2(C)C)OC1=O", "note": "(racemic) [rac‐CL]", "values": [{"measurement": "yeast microsome conversion, LC-MS/MS", "setting": "[1]", "value": "expressing SbMAX1b, SbMAX1c, or SbMAX1d after incubation with rac‐CL"}, {"measurement": "yeast microsome conversion, LC-MS/MS", "setting": "[2]", "value": "expressing SbMAX1b, SbMAX1c, or SbMAX1d after incubation with rac‐CL"}]}]}
